Some test systems named below: BT-549 breast; HL-60(TB) leukemia; DMS 273 small cell lung; A549 NSCLC; OVCAR-3 ovarian; UACC-62 melanoma; M14 melanoma; NCI/ADR-RES ovarian; HCT-116 colon; HOP-18 NSCLC.
What all share (test): growth of human tumour cells (NCI), 48 h

Values joined by “and” are separate entries in the source; they are usually repeats but may differ in a detail not shown here. Identical values can stand only once.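 1) Cells in 96-well plates. 2) Compound, 48 h, 5 concentrations. 3) Linear interpolation between surrounding doses. 4) Unreached endpoint = highest concentration. GI50 = concentration required for 50% inhibition of growth. TGI: concentration producing complete growth inhibition.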

`CCCCCCCCCCCCCCCCOP(=O)([O-])OCC[N+](C)(C)C`: the GI50 is 1.63 µM in the test on BT-549 breast; 0.897 µM with HL-60(TB) leukemia; 1.6 µM in the test with A549 NSCLC; 3.74 µM in the test with OVCAR-3 ovarian; 1.34 µM in the test with UACC-62 melanoma; 1.56 µM with M14 melanoma. Further, the GI50 in the test with NCI/ADR-RES ovarian was 11.1 µM; in the test with HCT-116 colon, 1.49 µM. For the same compound, the TGI with BT-549 breast is 5.87 µM and 17.8 µM; in the test on HL-60(TB) leukemia it was 3.84 µM and 16.3 µM; with DMS 273 small cell lung, 25.8 µM; in the test with OVCAR-3 ovarian, 14.8 µM and 48.4 µM; in the test with NCI/ADR-RES ovarian, 23.2 µM and 58.7 µM; in the test with HOP-18 NSCLC it was over 100 µM.

Take `O=S(=O)(N=NC=C1c2ccccc2N(O)c2ccccc21)c1ccc(Cl)cc1`: the TGI in the test on HL-60(TB) leukemia, in the test on DMS 273 small cell lung, with A549 NSCLC, in the test on OVCAR-3 ovarian, in the test with UACC-62 melanoma and in the test with M14 melanoma was over 100 µM in each case. Besides, the TGI with HCT-116 colon and with HOP-18 NSCLC was over 100 µM throughout.

On to `N#CC(C#N)=Cc1ccc(CP(=O)(O)O)cc1`, for which the TGI with HL-60(TB) leukemia, in the test with DMS 273 small cell lung, in the test with A549 NSCLC, in the test with OVCAR-3 ovarian, in the test with UACC-62 melanoma and in the test on M14 melanoma was over 100 µM in each case. Moreover, the TGI in the test with HCT-116 colon and with HOP-18 NSCLC was over 100 µM each time.

On to `CCn1c2c(c3ccccc31)[C@@H](c1ccc(Cl)cc1)CC1C(=O)N(c3ccccc3)C(=O)C21` (some centres not stated), for which the TGI in the test on HL-60(TB) leukemia, with DMS 273 small cell lung, in the test with A549 NSCLC, in the test with OVCAR-3 ovarian, in the test on UACC-62 melanoma and in the test on M14 melanoma was over 100 µM each time. The TGI in the test on HCT-116 colon and in the test on HOP-18 NSCLC was over 100 µM each time.

With `CO[C@H]1C[C@](C)(O)Cc2cc3c(c(O)c21)C(=O)c1c(O)cc2c(c1C3=O)O[C@@H]1O[C@@]2(C)[C@H](O)[C@@H](N(C)C)[C@@H]1O`, the TGI is 7.3 µM in the test with BT-549 breast; 0.797 µM and 1.64 µM in the test with HL-60(TB) leukemia; 2.79 µM and 3.32 µM in the test with DMS 273 small cell lung; 1.61 µM and 3.02 µM in the test with A549 NSCLC; 4.03 µM and 8.09 µM in the test on OVCAR-3 ovarian; 2.98 µM and 2.83 µM in the test on UACC-62 melanoma. Moreover, the TGI with M14 melanoma is 2.58 µM and 4.49 µM; in the test on NCI/ADR-RES ovarian, 27.8 µM; in the test with HCT-116 colon, 2.51 µM and 3.03 µM; in the test on HOP-18 NSCLC, 4.3 µM and 8.6 µM. Besides, the GI50 is 0.159 µM in the test with HL-60(TB) leukemia; 0.188 µM in the test on DMS 273 small cell lung; 0.139 µM in the test with A549 NSCLC; 1.92 µM in the test with OVCAR-3 ovarian; 1.13 µM in the test with HCT-116 colon; 1.29 µM in the test with HOP-18 NSCLC.

Regarding `CCCN(CCC)C(=O)c1nc(N)nc(-c2ccc(OC)cc2)c1-c1ccc(OC)cc1`, the TGI in the test with HL-60(TB) leukemia, with DMS 273 small cell lung, with A549 NSCLC, in the test with OVCAR-3 ovarian, with UACC-62 melanoma and with M14 melanoma was over 100 µM each time. The TGI in the test on HCT-116 colon and in the test on HOP-18 NSCLC was over 100 µM throughout.

Regarding `CC(C)c1cccc(O)c(=O)c1`, the GI50 with BT-549 breast was 3.57 µg/mL; in the test on HL-60(TB) leukemia it was 1.25 µg/mL; in the test with A549 NSCLC, 2.42 µg/mL; in the test with OVCAR-3 ovarian, 2.5 µg/mL; with UACC-62 melanoma, 4.17 µg/mL; in the test on M14 melanoma, 75 µg/mL. Also, the GI50 is 4.5 µg/mL in the test on NCI/ADR-RES ovarian and 3.81 µg/mL in the test on HCT-116 colon. In addition, the TGI is 42.4 µg/mL in the test with BT-549 breast; over 48.4 µM in the test with DMS 273 small cell lung; > 75 µg/mL and > 74.5 µM in the test with A549 NSCLC; 28.6 µg/mL and > 41.3 µM with UACC-62 melanoma; > 75 µg/mL and > 57.5 µM in the test with M14 melanoma; over 75 µg/mL with NCI/ADR-RES ovarian. Moreover, the TGI in the test with HCT-116 colon is > 75 µg/mL and > 40.2 µM; in the test on HOP-18 NSCLC, over 100 µM.

As for `Cc1c(N)nc(C(CC(N)=O)NCC(N)C(N)=O)nc1C(=O)NC(C(=O)NC(C)C(O)C(C)C(=O)NC(C(=O)NCCc1nc(-c2nc(C(=O)NCCCNC(C)c3ccccc3)cs2)cs1)C(C)O)C(OC1OC(CO)C(O)C(O)C1OC1OC(CO)C(O)C(OC(N)=O)C1O)c1cnc[nH]1` (configuration not stated), the TGI with BT-549 breast is 50 µM; in the test on HL-60(TB) leukemia, 50 µM and > 100 µM; with DMS 273 small cell lung, 4.95 µM; with A549 NSCLC, 50 µM and > 100 µM; in the test on OVCAR-3 ovarian it was 38.3 µM and > 100 µM; with UACC-62 melanoma, 8.82 µM. Moreover, the TGI in the test on M14 melanoma was 29.6 µM and > 100 µM; in the test on NCI/ADR-RES ovarian, 45.5 µM; in the test on HCT-116 colon, 49.4 µM and > 100 µM; with HOP-18 NSCLC it was 46.8 µM. In addition, the GI50 in the test on HL-60(TB) leukemia is 32 µM; with A549 NSCLC it was 0.63 µM; in the test with OVCAR-3 ovarian, 79.2 µM; with M14 melanoma, 5.13 µM; in the test with HCT-116 colon, 1.76 µM.

As for `O=C(Nc1ccccc1-c1nn(CN2CCNCC2)c(=S)n(CN2CCNCC2)c1=O)C(F)(F)F`, the TGI in the test on HL-60(TB) leukemia amounted to 43.2 µM; in the test with DMS 273 small cell lung it was 35.3 µM; in the test on A549 NSCLC, 52.4 µM; in the test with OVCAR-3 ovarian, 49.9 µM; in the test with UACC-62 melanoma it was 32.5 µM; in the test on M14 melanoma it was 31.1 µM. The TGI in the test on HCT-116 colon stood at 32.5 µM; with HOP-18 NSCLC, 63.9 µM.

As for `C1CN(P2(N3CC3)=NP(N3CC3)(N3CC3)=NP(N3CC3)(N3CC3)=N2)CCO1` (configuration not stated), the TGI with HL-60(TB) leukemia, with DMS 273 small cell lung, in the test on A549 NSCLC, with OVCAR-3 ovarian, in the test with UACC-62 melanoma and in the test with M14 melanoma was over 100 µM throughout. Further, the TGI with HCT-116 colon and with HOP-18 NSCLC was over 100 µM each time.

Take `COc1ccc2c(c1)NC1(O)c3ccccc3C(=O)C21O` (configuration not stated): the TGI in the test on HL-60(TB) leukemia, with DMS 273 small cell lung, with A549 NSCLC, with OVCAR-3 ovarian, in the test with UACC-62 melanoma and in the test with M14 melanoma was over 100 µM in each case. Further, the TGI in the test with HCT-116 colon and with HOP-18 NSCLC was over 100 µM in each case.

The record behind these values is PubChem BioAssay (NCI).
